Where two headings read alike, the source gives them in different places.
How the values were obtained:
KRAS^G12C/SOS1 = target: T1, KRAS^G12C/SOS1 (Homo sapiens, UniProt P01116, G12C); experiment: KRAS^G12C/SOS1 protein-protein interaction Binding assay (CisBio kit); conditions: class symbols
T1 construct: purchased CisBio
Procedure: CisBio’s KRAS^G12C/SOS1 kit was used to test the efficacy of the compound on inhibiting the protein-protein interaction between SOS1 and KRAS^G12Cby Binding assay.Results were expressed as IC50values.
Test methods: (1) the test compound was tested at a concentration of 1000 nM. Diluted to 3-fold diluted compound of a 200-fold final concentration of 100% DMSO solution in a 384-well plate at 10 concentrations. 50 nL of 200-fold final concentration of compound was transferred to the destination plate 384 well plate using a dispenser Echo 550.50 nL of 100% DMSO was added to the negative control wells and positive control wells; (2) 4-fold final concentration of Tag1 SOS1 solution was prepared using Diluent buffer; (3) 2.5 µL of 4-fold final concentration of Tag1 SOS1 solution was added to the 384-well plate; (4) 4-fold final concentration of Tag2 KRAS^G12C solution was prepared using Diluent buffer; (5) 2.5 µL of 4-fold final concentration of Tag2 KRAS^G12C solution was added to compound wells and positive control wells, respectively; 2.5 µL of diluent buffer was added to negative control wells; (6) the 384-well plate was centrifuged at 1000 rpm for 30 seconds, shaken and mixed, and incubated at room temperature for 15 min; (7) 1-fold final concentration of Anti Tag1 TB3+ solution and 1-fold final concentration of Anti Tag2 XL665 solution were prepared with Detection buffer, and 5 µL of the mixture was added to each well after mixing the two solutions; (8) the 384-well plate was centrifuged at 1000 rpm for 30 seconds, shaken and mixed, and incubated at room temperature for 120 minutes; (9) the Envision enzyme marker was used to read
Em665/620; (10) data analysis, calculation formula; where Min signal is the mean value of negative control wells, Max signal is the mean value of positive control wells.The log value of concentration was used as the X-axis and the percentage inhibition as the Y-axis to fit the quantitative efficacy curve using the log(inhibitor) vs. response Variable slope of the quantitative efficacy curve of the analytical software GraphPad Prism 5 to derive the IC50 value of each compound on the enzyme activity.The fitting formula was: Y=Bottom+(Top Bottom)/(1+10^A((LogIC50X)^∗ HillSlope)).

[1] = test system: MiaPaca-2 cells (pancreatic cancer); experiment: Proliferation test method 1 (2D, MTT), MiaPaca-2; assay type: cell-based; conditions: 5-7 days, read-out: IC50/nM proliferation inhibitory activity on MiaPaca-2 cells
Procedure: (§1) Test method 1 (2D):NCI-H358 (lung cancer) and MiaPaca-2 cells (pancreatic cancer) cells (100 µL/well, 20,000 cells/mL) were inoculated in 96-well culture plates supplemented with 10% fetal bovine serum and 1% penicillin/streptomycin sulfate, respectively.Using 0.5% dimethyl sulfoxide as a blank control, cells were treated with a solution of the compound to be tested at a starting concentration of 10 µM, tripled diluted testing solution of the compound in eight gradients were used to treat cells, and then incubated in a 5% CO2 incubator for a certain period of time (5-7 days).At the end of incubation, 10 µL of MTT stock solution (5 mg/mL) was added to each well.The culture plates were incubated at 37° C. for 4 h and then the medium was removed.Dimethyl sulfoxide (100 µL) was added to each well and then shaken sufficiently. The absorbance of the product formazanwas measured at 570 nm on the Thermo Scientific Varioskan Flash multimode reader.IC50 values were obtained by fitting dose-response data into a three-parameter nonlinear regression model using GraphPad Prism 6.0 software.

NCI-H358 cells = experiment: Proliferation test method 2 (3D, Cell Titer Glo 3D), NCI-H358; assay type: cell-based; conditions: Homo sapiens, NCI-H358, 96 h, read-out: IC50 cell proliferation inhibitory activity against NCI-H358
Procedure: (§2) Test method 2 (3D): The tumor cells in the logarithmic growth phase were diluted with culture solution to a certain concentration and inoculated on the 96-well plate on the ultra-low attachment surface, and the culture medium was 80 µL/well. Cells were incubated overnight at 37° C. in a humidity chamber. On the second day, a series of diluted test compounds (10 concentrations, 3 times dilution) were added to the plate, 20 µL/well, incubated in an incubator for 96h.The plates are removed and placed at room temperature and incubated with an equal volume of Cell Titer Glo®3D reagent for 1 h. The signal is detected by the En Vision™ plate reader. […] A four-parameter nonlinear regression curve was fitted to the percent inhibition for each concentration of the compound and the IC50 was calculated.

MiaPaca-2 cells = experiment: Proliferation test method 2 (3D, Cell Titer Glo 3D), MiaPaca-2; assay type: cell-based; conditions: Homo sapiens, MIA PaCa-2, 96 h, read-out: IC50 cell proliferation inhibitory activity against MiaPaca-2
Procedure: as §2

[2] = test system: NCI-H358 (lung cancer) cells; experiment: Proliferation test method 1 (2D, MTT), NCI-H358; assay type: cell-based; conditions: Homo sapiens, 5-7 days, read-out: IC50 proliferation inhibitory activity against NCI-H358
Procedure: as §1

[3] = test system: phosphorylated ERK levels of NCI-H358; experiment: ERK phosphorylation (western blot), H358; assay type: cell-based; conditions: Homo sapiens, 3 h
Procedure: (§3) Test method 3 (ERK phosphorylation): Miapaca-2 or H358 cells were inoculated at certain concentrations in 96-well plates and incubated overnight at 37° C., 5% CO2 in a cell culture incubator, and serial dilutions of the test compound (5 concentrations, 3-fold dilution) were added to the plates the next day for 24 h (Miapaca-2) or 3 h (H358), then lysis solution containing protease and phosphatase inhibitor were added to lyse the cells to extract proteins and western blot method was used to detect the level of p-ERK.

[4] = test system: phosphorylated ERK levels of MiaPaca-2; experiment: ERK phosphorylation (western blot), MiaPaca-2; assay type: cell-based; conditions: Homo sapiens, MIA PaCa-2, 24 h
Procedure: as §3

T1 sequence (P01116 1-188 isoform P01116-2 G12C): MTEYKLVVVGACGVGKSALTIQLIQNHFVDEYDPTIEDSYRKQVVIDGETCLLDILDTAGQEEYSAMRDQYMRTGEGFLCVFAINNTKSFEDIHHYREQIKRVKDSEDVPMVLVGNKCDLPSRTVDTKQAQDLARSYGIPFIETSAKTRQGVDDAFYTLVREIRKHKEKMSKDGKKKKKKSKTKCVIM

| SMILES | IC50 (KRAS^G12C/SOS1) [nM] | IC50 ([1]; Homo sapiens, MIA PaCa-2, 2D) [nM] | further results |
| --- | --- | --- | --- |
| C=CC(=O)N1CC2C(=O)N(C)c3cnc4c(F)c(-c5c(O)cccc5F)c(Cl)cc4c3N2CC1C (single isomer, unassigned) [Comparative Compound 2-2, reference compound] | > 1000 |  |  |
| C=CC(=O)N1C[C@@H]2C(=O)N(C)c3cnc4c(F)c(-c5ccc(F)c6sc(N)nc56)c(Cl)cc4c3N2C[C@H]1C (single isomer, unassigned) [Example 17-2] |  |  | IC50 ([1]; 2D): 23.1 nM |
| C=CC(=O)N1CCN(c2nc(NC[C@@H]3CCCN3C)nc3c(F)c(-c4ccc(F)c5sc(N)nc45)c(Cl)cc23)CC1 [Example 2, 1-(4-(7-(2-Amino-7-Fluorobenzo[d]Thiazol-4-yl)-6-Chloro-8-Fluoro-2-((((S)-1-Methylpyrrolidin-2-yl)Methyl)Amino)Quinazolin-4-yl)Piperazin-1-yl)Prop-2-En-1-One] | < 50 | 13.2 | IC50 (NCI-H358 cells): < 200 nM; IC50 (MiaPaca-2 cells): < 200 nM |
| C=CC(=O)N1CCN(c2c(C#N)c(NC[C@@H]3CCCN3C)nc3c(F)c(-c4ccc(F)c5sc(N)nc45)c(Cl)cc23)CC1 [Example 4, 4-(4-Piperazinylacryloylpiperazin-1-yl)-7-(2-Amino-7-Fluorobenzo[d]Thiazol-4-Yl)-6-Chloro-8-Fluoro-2-((((S)-1-Methylpyrrolin-2-yl)Methyl)Amino)Quinoline-3-Cyano] | < 50 | 1.1 |  |
| C=CC(=O)N1CCN(c2nc(OCCN(C)C)nc3c(F)c(-c4ccc(F)c5sc(N)nc45)c(Cl)cc23)CC1 [Example 5] | < 50 |  | IC50 [2]: < 100 nM; IC50 (NCI-H358 cells): < 200 nM; IC50 (MiaPaca-2 cells): < 200 nM; IC50 [3]: < 500 nM; IC50 [4]: < 500 nM |
| C=CC(=O)N1CCN(c2nc(Cl)nc3c(F)c(-c4ccc(F)c5sc(N)nc45)c(Cl)cc23)CC1 [Example 6, 1-(4-(7-(2-Amino-7-Fluorobenzo [d] Thiazol-4-yl)-2,6-Dichloro-8-Fluoroquinazolin-4-yl) Piperazin-1-yl) Prop-2-Ene-1-One] | 50 to 200 | 35 |  |
| C=CC(=O)N1CCN(c2c(C#N)c(Cl)nc3c(F)c(-c4ccc(F)c5sc(N)nc45)c(Cl)cc23)CC1 [Example 7] | 50 to 200 | 23.1 |  |
| C=C(F)C(=O)N1CCN(c2c(C#N)cnc3c(F)c(-c4ccc(F)c5sc(N)nc45)c(Cl)cc23)CC1 [Example 9, 7-(2-Amino-7-Fluorobenzo [d] Thiazol-4-yl) -6-Chloro-8-Fluoro-4-(4-(2-Fluoroacryloyl) Piperazin-1-yl) Quinolin-3-Cyano] | 50 to 200 | 362 |  |
| C=CC(=O)N1CCN(c2nc(OC[C@@H]3CCCN3C)nc3c(F)c(-c4ccc(F)c5sc(N)nc45)c(Cl)cc23)CC1CC#N (stereo partly drawn) [Example 12, 2-(1-acryloyl-4-(7-(2-Amino-7-Fluorobenzo [d] Thiazol-4-yl) -6-Chloro-8-Fluoro-2-(((S)-1-Methylpyrrolidin-2-yl) Methoxy) Quinazolin-4-yl) Piperazin-2-yl) Acetonitrile] | 50 to 200 | 19.3 |  |
| C=CC(=O)N1CCN(c2c(C#N)cnc3c(F)c(-c4ccc(F)c5sc(N)nc45)c(Cl)cc23)CC1CC#N (centres unmarked) [Example 15, 4-(4-Acryloyl-3-(Cyanomethyl) Piperazin-1-yl)-7-(2-Amino-7-Fluorobenzo [d] Thiazol-4-yl)-6-Chloro-8-Fluoroquinolin-3-Cyano] | 200 to 1000 | 390 |  |
| C=CC(=O)N1CCN(c2c(C#N)cnc3c(F)c(-c4ccc(F)c5sc(N)nc45)c(Cl)cc23)C[C@H]1C [Example 16, 4-((R)-4-Acryloyl-3-Methylpiperazin-1-yl)-7-(2-Amino-7-Fluorobenzo [d] Thiazol-4-yl)-6-Chloro-8-Fluoroquinolin-3 -Cyano] | 50 to 200 |  | IC50 [2]: < 100 nM; IC50 (NCI-H358 cells): < 200 nM; IC50 (MiaPaca-2 cells): < 200 nM; IC50 [3]: < 500 nM; IC50 [4]: < 500 nM |
| C=CC(=O)N1CCN(c2nc(NCCC(=O)N(C)C)nc3c(F)c(-c4ccc(F)c5sc(N)nc45)c(Cl)cc23)CC1 [Example 19, 3-((4-(4-Acryloylpiperazin-1-yl)-7-(2-Amino-7-Fluorobenzo [d] Thiazol-4-yl)-6-Chloro-8-Fluoroquinazolin-2-yl) Amino)-N,N-Dimethylpropanamide] | 50 to 200 | 28 |  |
| C=CC(=O)N1CCN(c2c(C#N)c(NCCC(=O)N(C)C)nc3c(F)c(-c4ccc(F)c5sc(N)nc45)c(Cl)cc23)CC1 [Example 22, 3-((4-(4-Acryloylpiperazin-1-yl)-7-(2-Amino-7-Fluorobenzo [d] Thiazol-4-yl)-6-Chloro-3-Cyano-8-Fluoroquinolin-2-yl) Amino)-N,N-Dimethylpropanamide] | 50 to 200 | 0.93 |  |
| C=CC(=O)N1CCN(c2nc(OC[C@@H]3C[C@@H](O)CN3C)nc3c(F)c(-c4ccc(F)c5sc(N)nc45)c(Cl)cc23)CC1 [Example 24, 1-(4-(7-(2-Amino-7-Fluorobenzo[d]Thiazol-4-yl)-6-Chloro-8-Fluoro-2-(((2S,4R)-4-Hydroxy-1-Methylpyrrolin-2-yl) Methoxy) Quinazolin-4-yl) Piperazin-1-yl) Prop-2-En-1-One] | < 50 | < 1 |  |
| C=CC(=O)N1CCN(c2nc(OC[C@@H]3C[C@H](F)CN3C)nc3c(F)c(-c4ccc(F)c5sc(N)nc45)c(Cl)cc23)CC1 [Example 25] | < 50 |  | IC50 [2]: < 100 nM; IC50 [3]: < 500 nM; IC50 [4]: < 500 nM |
| C=CC(=O)N1CCN(c2nc(OC[C@@H]3C[C@@H](F)CN3C)nc3c(F)c(-c4ccc(F)c5sc(N)nc45)c(Cl)cc23)CC1 [Example 27] | < 50 |  | IC50 ([1]; 2D): < 1 nM |
| C=C(F)C(=O)N1C[C@@H]2C(=O)N(C)c3cnc4c(F)c(-c5ccc(F)c6sc(N)nc56)c(Cl)cc4c3N2C[C@H]1C [Example 28, (2R,4aR)-10-(2-Amino-7-Fluorobenzo[d]Thiazol-4-yl)-11-Chloro-9-Fluoro-3-(2-Fluoroacryloyl)-2,6-Dimethyl-2,3,4,4a-Tetrahydro-1H-Pyrazin [1′,2′:4,5] Pyrazin [2,3-c] Quinolin-5(6H)-one] | 50 to 200 | 63.2 |  |

— patent US20230174526A1, “BENZOTHIAZOLYL BIARYL COMPOUND, AND PREPARATION METHOD AND USE” (SHANGHAI RINGENE BIOPHARMA CO., LTD., priority 2020, published 2023)
